Assay results as given in patent US20250136552A1, “ANTAGONISTS OF CAV 2.3” (LARIO THERAPEUTICS LIMITED, priority 2021, published 2025).

The compounds below were run against Cav2.3 (Homo sapiens, UniProt Q15878) (assay: Human Cav2.3 channel calcium-influx assay). Conditions: HEK-293 T-Rex/Kir2.1 cells with inducible Cav2.3e-β4-α2δ1; Fluo8 fluorescence; 8-point dose response from 30 μM; no pluronic acid; read-out: Cav2.3 (pIC50) (converted).
Assay type: cell-based
Procedure: HEK-293 T-Rex cells were transfected with pcDNA3.1-Kir2.1 to generate a stable cell line. After antibiotic selection, the obtained stable pools were analysed using FLIPR^TETRA(membrane potential assay), and a limiting dilution was performed and a HEK-293 T-Rex/Kir2.1 clone was selected. The clone was transfected with pcDNA3.1-Cav2.3e and pBud-Cav-β4-α2δ1 to generate a stable cell line where the Cav2.3e expression is inducible. After antibiotic selection, functional clone pool analysis and two successive limiting dilutions, the final clone underwent a qPCR analysis and a biophysical and pharmacological validation using patch-clamp.
A compound plate, containing 10 test compounds in eight-points dose response with n=4, was prepared. Test compounds dose response curves were prepared in automated fashion in 100% DMSO at CyBio Felix and starting from a stock solution in 100% DMSO; a defined volume was serially moved into destination wells pre-filled with the desired DMSO volume; stock solution concentration volumes were dependent on the final compounds concentrations to be tested and the final DMSO content used in the assay. For the assay test compounds dose response curves ranged from 30 μM and half log dilution with 0.3% final DMSO. In order to obtain the 8-points dose response curve all the concentrations were created by starting from a 10 mM DMSO stock solution and then moving 9.5 μL into a destination well pre-filled with 20.5 μL of 100% DMSO and repeating this step seven times. This initial step was done into 96 MTP plates, 10 compounds/plate. One 384 MTP was then reformatted to contain all the 10 compounds at 8 concentrations, quadruplicate data points. This so obtained 384 MTP compound plate served as source plate in a “mother to child” process with a CyBi®-Well dispenser in which 0.7 μL of compounds were moved into a destination plate pre-filled with 57.6 μL of Tyrode's buffer 0 mM K^+, thus obtaining 4× concentrated compounds solution. In columns 1-2 and 23-24 the control wells were added. Both “source” compound plate and “destination” compound plate were barcoded and a relationship between the two plates was thus generated.
The day before the experiment, cells were detached by gentle wash with DPBS, followed by 5 min incubation at 37° C. with Trypsin solution. Detached cells were diluted with OptiMEM+Doxycycline at 0.2 μg/mL, counted and plated in Poly-D-Lysine coated black/clear bottom (15.000 c/well in 20 μl/well) by the use of a MATRIX WellMate dispenser. Plates were placed into a humidified incubator at 37° C. with 5% CO2 until the experimental day. 24 h after seeding 10 μL/well of 1.5× Fluo8 NW dye solution prepared in Tyrode's buffer 0 mM K^+ were added on top of the seeding medium. Cell plates were incubated for 40-60 min at RT in the dark. We then Injected off-line 10 μL/well of test compounds and controls 4× concentrated in Tyrode's Buffer 0 mM K+ with the CyBi®-Well instrument. Cell plates were incubated 3 minutes at RT. Finally, we injected 20 μL/well of 3× concentrated activator solution (K20-Na130-Ca2 buffer: 20 mM KCl, 130 mM NaCl, 2 mM CaCl2, 10 mM HEPES, 10 mM Glucose, final concentrations, prepared starting from “K0-Na150-Ca2” and “K150-Na0-Ca2” buffers) at FDSS7000EX instrument and read emitted fluorescence for 130 seconds.
Data analysis was performed with Genedata Screener® software and reported compounds activity as % effect in relation to the normalization standards. The Kinetic Response Value (KRV) is calculated as follows:
KRV=Maximal fluorescence recorded from second 5 to second 130 minus baseline fluorescence, computed as average from second 1 to second 2, of the kinetic trace. The KRV was normalized versus Neutral Controls and Inhibitor Controls in order to obtain the Activity[%] for each well. […] Therefore, the compound activity values were scaled (based on the two references) to a common range (two-point normalization). […]

Cav2.3, sequence (Q15878 1-2270 isoform Q15878-3): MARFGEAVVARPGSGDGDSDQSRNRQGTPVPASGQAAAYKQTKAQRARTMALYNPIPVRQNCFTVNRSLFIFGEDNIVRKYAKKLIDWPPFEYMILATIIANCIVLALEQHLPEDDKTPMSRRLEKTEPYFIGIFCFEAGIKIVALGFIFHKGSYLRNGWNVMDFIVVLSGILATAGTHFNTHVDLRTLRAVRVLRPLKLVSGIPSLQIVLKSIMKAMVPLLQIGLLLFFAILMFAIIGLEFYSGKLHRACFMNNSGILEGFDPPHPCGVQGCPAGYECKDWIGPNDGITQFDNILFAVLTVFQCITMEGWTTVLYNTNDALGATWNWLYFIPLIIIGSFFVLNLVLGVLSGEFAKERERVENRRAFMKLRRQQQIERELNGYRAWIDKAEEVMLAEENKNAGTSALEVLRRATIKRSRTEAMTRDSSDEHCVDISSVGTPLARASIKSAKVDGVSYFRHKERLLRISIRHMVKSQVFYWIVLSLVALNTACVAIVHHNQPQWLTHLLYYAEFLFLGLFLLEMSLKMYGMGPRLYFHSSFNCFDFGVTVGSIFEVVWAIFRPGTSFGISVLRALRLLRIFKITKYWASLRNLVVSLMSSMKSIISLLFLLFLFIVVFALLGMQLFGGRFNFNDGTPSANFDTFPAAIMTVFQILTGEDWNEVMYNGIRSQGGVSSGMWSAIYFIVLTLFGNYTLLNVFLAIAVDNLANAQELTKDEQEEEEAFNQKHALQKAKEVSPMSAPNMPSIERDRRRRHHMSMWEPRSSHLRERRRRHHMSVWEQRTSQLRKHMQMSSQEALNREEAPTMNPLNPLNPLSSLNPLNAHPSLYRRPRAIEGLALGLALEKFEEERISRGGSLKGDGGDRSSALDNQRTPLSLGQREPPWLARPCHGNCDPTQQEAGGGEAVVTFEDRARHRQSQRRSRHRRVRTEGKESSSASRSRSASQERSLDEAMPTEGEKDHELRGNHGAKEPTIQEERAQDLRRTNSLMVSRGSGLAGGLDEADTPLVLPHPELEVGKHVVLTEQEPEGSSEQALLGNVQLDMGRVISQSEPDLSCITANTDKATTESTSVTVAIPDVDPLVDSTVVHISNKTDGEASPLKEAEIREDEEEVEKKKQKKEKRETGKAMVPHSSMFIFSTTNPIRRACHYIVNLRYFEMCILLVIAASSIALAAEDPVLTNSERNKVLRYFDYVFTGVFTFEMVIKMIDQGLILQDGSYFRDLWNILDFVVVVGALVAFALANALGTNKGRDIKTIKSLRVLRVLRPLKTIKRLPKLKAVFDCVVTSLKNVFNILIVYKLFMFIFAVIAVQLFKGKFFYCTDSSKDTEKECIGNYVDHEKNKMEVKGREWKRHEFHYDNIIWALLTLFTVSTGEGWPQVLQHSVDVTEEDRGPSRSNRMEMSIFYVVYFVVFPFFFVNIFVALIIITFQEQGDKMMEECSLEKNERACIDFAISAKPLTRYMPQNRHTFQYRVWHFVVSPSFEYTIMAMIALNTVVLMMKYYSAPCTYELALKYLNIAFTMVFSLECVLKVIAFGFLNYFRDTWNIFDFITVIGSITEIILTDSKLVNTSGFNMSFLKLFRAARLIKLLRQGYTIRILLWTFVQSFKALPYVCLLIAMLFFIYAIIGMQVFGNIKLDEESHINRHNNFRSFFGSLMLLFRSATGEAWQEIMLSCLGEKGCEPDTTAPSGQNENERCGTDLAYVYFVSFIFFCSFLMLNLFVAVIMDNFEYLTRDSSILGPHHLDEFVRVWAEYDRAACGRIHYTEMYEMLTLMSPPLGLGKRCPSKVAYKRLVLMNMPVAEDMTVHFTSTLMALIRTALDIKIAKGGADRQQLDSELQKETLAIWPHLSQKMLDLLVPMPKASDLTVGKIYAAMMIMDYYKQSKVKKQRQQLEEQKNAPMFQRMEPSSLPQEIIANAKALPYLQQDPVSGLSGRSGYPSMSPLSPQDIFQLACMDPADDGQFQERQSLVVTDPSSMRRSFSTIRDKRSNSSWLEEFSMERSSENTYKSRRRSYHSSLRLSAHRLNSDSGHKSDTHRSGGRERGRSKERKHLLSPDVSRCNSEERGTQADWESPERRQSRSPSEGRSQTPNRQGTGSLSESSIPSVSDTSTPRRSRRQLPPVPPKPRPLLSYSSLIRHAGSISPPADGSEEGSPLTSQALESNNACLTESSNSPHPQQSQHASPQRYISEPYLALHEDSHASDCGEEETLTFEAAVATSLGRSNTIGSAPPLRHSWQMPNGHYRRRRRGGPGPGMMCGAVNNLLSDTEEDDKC

Row | SMILES | IC50 [µM]
1 | CCN([C@@H](C)c1ccc(F)cc1)S(=O)(=O)c1ccc2c(n1)CCN(C(=O)C1CC1)C2 [Example 33, (S)-6-(cyclopropanecarbonyl)-N-ethyl-N-(1-(4-fluorophenyl)ethyl)-5,6,7,8-tetrahydro-1,6-naphthyridine-2-sulfonamide] | 3.63
2 | CC(C)C(=O)N1CCc2cc(S(=O)(=O)N(C)C3(c4ccc(F)cc4)COC3)ccc2C1 [Example 31, N-(3-(4-fluorophenyl)oxetan-3-yl)-2-isobutyryl-N-methyl-1,2,3,4-tetrahydroisoquinoline-6-sulfonamide] | 9.12
3 | CC(C)C(=O)N1CCc2ccc(S(=O)(=O)N(C)C3(c4ccc(F)cc4)COC3)cc2C1 [Example 29, N-(3-(4-fluorophenyl)oxetan-3-yl)-2-isobutyryl-N-methyl-1,2,3,4-tetrahydroisoquinoline-7-sulfonamide] | 7.08
4 | CCN(C1(c2ccc(F)cc2)COC1)S(=O)(=O)c1ccc2c(c1)CCN(C(=O)C(C)C)C2 [Example 30, N-ethyl-N-(3-(4-fluorophenyl)oxetan-3-yl)-2-isobutyryl-1,2,3,4-tetrahydroisoquinoline-6-sulfonamide] | 6.76
5 | CCN([C@@H](C)c1ccc(F)cc1)S(=O)(=O)c1cnc2c(c1)CCN(C(=O)C1CC1)C2 [Example 32, (S)-7-(cyclopropanecarbonyl)-N-ethyl-N-(1-(4-fluorophenyl)ethyl)-5,6,7,8-tetrahydro-1,7-naphthyridine-3-sulfonamide] | 2.29
6 | CC(C)C(=O)N1CCc2ccc(S(=O)(=O)NCC(C)c3ccc(F)cc3)cc2C1 (single isomer, unassigned) [Example 17, N-(2-(4-fluorophenyl)propyl)-2-isobutyryl-1,2,3,4-tetrahydroisoquinoline-7-sulfonamide] | 6.17
7 | CC(C)C(=O)N1CCc2ccc(S(=O)(=O)N(C)C(c3ccc(F)cc3)C(F)(F)F)cc2C1 (stereo not shown) [Example 8, 2-isobutyryl-N-methyl-N-(2,2,2-trifluoro-1-(4-fluorophenyl)ethyl)-1,2,3,4-tetrahydroisoquinoline-7-sulfonamide] | 1.07

Next, values leading:

Row | IC50 [µM] | SMILES
8 | 0.427 | CCN([C@H](c1ccc(F)cc1)C(F)(F)F)S(=O)(=O)c1ccc2c(c1)CN(C(=O)C1CC1)CC2 [Example 48, (R)-2-(Cyclopropanecarbonyl)-N-ethyl-N-(2,2,2-trifluoro-1-(4-fluorophenyl)ethyl)-1,2,3,4-tetrahydroisoquinoline-7-sulfonamide]
9 | 2.63 | CCN([C@@H](c1ccc(F)cc1)C(F)(F)F)S(=O)(=O)c1ccc2c(c1)CN(C(=O)C(C)(C)F)CC2 [Example 42, (S)-N-ethyl-2-(2-fluoro-2-methylpropanoyl)-N-(2,2,2-trifluoro-1-(4-fluorophenyl)ethyl)-1,2,3,4-tetrahydroisoquinoline-7-sulfonamide]
10 | 6.61 | C[C@@H](c1ccccc1)N(C)S(=O)(=O)c1ccc2c(c1)CCN(C)C2=O [Example 38, (S)-N,2-dimethyl-1-oxo-N-(1-phenylethyl)-1,2,3,4-tetrahydroisoquinoline-6-sulfonamide]
11 | 11.7 | CC(C)N1Cc2ccc(S(=O)(=O)N(C)[C@@H](C)c3ccccc3)cc2CC1=O [Example 39, (S)-2-isopropyl-N-methyl-3-oxo-N-(1-phenylethyl)-1,2,3,4-tetrahydroisoquinoline-6-sulfonamide]
12 | 4.57 | CCN([C@@H](c1ccc(F)cc1)C(F)(F)F)S(=O)(=O)c1ccc2c(c1)CN(C(=O)C1CC1)CC2 [Example 47, (S)-2-(Cyclopropanecarbonyl)-N-ethyl-N-(2,2,2-trifluoro-1-(4-fluorophenyl)ethyl)-1,2,3,4-tetrahydroisoquinoline-7-sulfonamide]
13 | 0.316 | CCN(C(c1ccc(F)cc1)C(F)(F)F)S(=O)(=O)c1ccc2c(c1)CN(C(=O)C1CC1)CC2 (stereo not shown) [Example 46, 2-(Cyclopropanecarbonyl)-N-ethyl-N-(2,2,2-trifluoro-1-(4-fluorophenyl)ethyl)-1,2,3,4-tetrahydroisoquinoline-7-sulfonamide]
